Converted amounts (≈) assume the structure as drawn. Read-outs that look alike come from different tables or passages of the source. Where a SMILES comes first, the peptide text is derived from it. [ ]: non-standard residue; d: D form. Nleu = CC(C)CNCC(=O)O; Nlys = NCCCCNCC(=O)O
Columns and labels:
[1] = Circular dichroism, α-helical content; format: physicochemical; settings: 0.1 mg/mL; for CD %α with 5 mM DPC: 10 mM phosphate buffer pH 7.4, 5 mM DPC; for CD %α with 20% TFE: 10 mM phosphate buffer pH 7.4, 20% TFE
[2] = Lipid vesicle leakage assay; settings: 10 mM TRIS, 107 mM NaCl, pH 7.4
Procedure: (c) Vesicle leakage assay for a selection of compounds.
EYPG - EB11 1 EYPC - EB11
Figure S2: Vesicle leakage experiments using 5(6)-carboxyfluorescein induced by peptides. EYPG and EYPC
compound was added after 45 sec. After 240 seconds, 30 µL Triton X-100 1.2% was added for full release of […]

P. aeruginosa PAO1 = settings: for MIC P. aeruginosa PAO1 […] 7.4 / MIC P. aeruginosa PAO1 […] 8.5 / MIC P. aeruginosa PAO1 Full MH 7.4 / MIC P. aeruginosa PAO1 Full MH 8.5: Table S2; for MIC P. aeruginosa PAO1 […] 7.4 / MIC P. aeruginosa PAO1 […] 8.5: […] MH; for MIC P. aeruginosa PAO1 […]: diluted MH ([…] MH, pH 8.5) per Table 1 footnote b, 16–20 h at 37 °C; for MIC P. aeruginosa PAO1 Full MH 7.4 / MIC P. aeruginosa PAO1 Full MH 8.5 / MIC P. aeruginosa PAO1 Full: full MH; for MIC P. aeruginosa PAO1 Full: pH 7.4, 16–20 h at 37 °C
Procedure, shortened: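 Microdilution MIC in MH broth; inocula from overnight LB cultures at 37 °C, about 5 × 10^5 CFU per well. Plates stood ca. 18 h at 37 °C, then MTT (1 mg/mL) was added for 20–30 min at RT, and wells remaining yellow marked inhibition.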

K. pneumoniae NCTC418 = settings: for MIC K. pneumoniae NCTC418 […] 7.4 / MIC K. pneumoniae NCTC418 […] 8.5: […] MH; for MIC K. pneumoniae NCTC418 […]: diluted MH ([…] MH, pH 8.5) per Table 1 footnote b, 16–20 h at 37 °C; for MIC K. pneumoniae NCTC418 Full: pH 7.4, 16–20 h at 37 °C
Procedure, shortened: (§1)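 MTT added (20–30 min, room temperature); MIC read by eye as lowest concentration inhibiting visible growth (yellow). Polymyxin B positive control from 16 μg/mL.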

A. baumannii ATCC19606 = settings: for MIC A. baumannii ATCC19606 […] 7.4 / MIC A. baumannii ATCC19606 Full MH 7.4 / MIC A. baumannii ATCC19606 Full MH 8.5 / MIC A. baumannii ATCC19606 […] 8.5: Table S2; for MIC A. baumannii ATCC19606 […] 7.4 / MIC A. baumannii ATCC19606 […] 8.5: […] MH; for MIC A. baumannii ATCC19606 […]: diluted MH ([…] MH, pH 8.5) per Table 1 footnote b, 16–20 h at 37 °C; for MIC A. baumannii ATCC19606 Full MH 7.4 / MIC A. baumannii ATCC19606 Full MH 8.5 / MIC A. baumannii ATCC19606 Full: full MH; for MIC A. baumannii ATCC19606 Full: pH 7.4, 16–20 h at 37 °C
Procedure, shortened: as §1

| Molecule | CD %α with 5 mM DPC ([1]; DichroWeb, Contin-LL) [%] | CD %α with 20% TFE ([1]; DichroWeb, Contin-LL) [%] | CD %α with 5 mM DPC ([1]; Table S2) [%] | CD %α with 20% TFE ([1]; Table S2) [%] | MIC P. aeruginosa PAO1, full MH at pH 7.4 (P. aeruginosa PAO1; PAO1, 4 h, pH 7.4) [ug/mL] | MIC P. aeruginosa PAO1 […] 7.4 (P. aeruginosa PAO1; pH 7.4) [µg/mL] | MIC P. aeruginosa PAO1 […] 8.5 (P. aeruginosa PAO1; pH 8.5) [µg/mL] | MIC P. aeruginosa PAO1 Full MH 7.4 (P. aeruginosa PAO1; pH 7.4) [µg/mL] | MIC P. aeruginosa PAO1 Full MH 8.5 (P. aeruginosa PAO1; pH 8.5) [µg/mL] | MIC K. pneumoniae NCTC418, full MH at pH 7.4 (K. pneumoniae NCTC418; NCTC418, 4 h, pH 7.4) [ug/mL] | MIC K. pneumoniae NCTC418 […] 7.4 (K. pneumoniae NCTC418; Table S2, pH 7.4) [µg/mL] | MIC K. pneumoniae NCTC418 Full MH 7.4 (K. pneumoniae NCTC418; Table S2, full MH, pH 7.4) [µg/mL] | MIC K. pneumoniae NCTC418 Full MH 8.5 (K. pneumoniae NCTC418; Table S2, full MH, pH 8.5) [µg/mL] | MIC A. baumannii ATCC19606, full MH at pH 7.4 (A. baumannii ATCC19606; ATCC19606, 4 h, pH 7.4) [ug/mL] | MIC A. baumannii ATCC19606 […] 7.4 (A. baumannii ATCC19606; pH 7.4) [µg/mL] | MIC A. baumannii ATCC19606 Full MH 7.4 (A. baumannii ATCC19606; pH 7.4) [µg/mL] | MIC A. baumannii ATCC19606 Full MH 8.5 (A. baumannii ATCC19606; pH 8.5) [µg/mL] | MIC P. aeruginosa PAO1, […] MH at pH 7.4 (P. aeruginosa PAO1; CSV) [ug/mL] | MIC P. aeruginosa PAO1, […] MH at pH 8.5 (P. aeruginosa PAO1; CSV) [ug/mL] | MIC P. aeruginosa PAO1, full MH at pH 7.4 (P. aeruginosa PAO1; CSV, full MH at pH 7.4) [ug/mL] | also measured |
| --- | --- | --- | --- | --- | --- | --- | --- | --- | --- | --- | --- | --- | --- | --- | --- | --- | --- | --- | --- | --- | --- |
| CC(C)C[C@H](NC(=O)[C@H](CCCCN)NC(=O)CNCCCCN)C(=O)N[C@@H](CC(C)C)C(=O)N[C@@H](CCCCN)C(=O)N[C@@H](CC(C)C)C(=O)N[C@@H](CC(C)C)C(=O)N[C@@H](CCCCN)C(=O)N[C@@H](CC(C)C)C(=O)N[C@@H](CC(C)C)C(=O)N(CC(N)=O)CC(C)C [EB1] (H-[Nlys]KLLKLLKLL[Nleu]-NH2; N-terminus assumed) | 30 | 26 | 30 | 26 | 4 | 2 (≈ 1.51 µM) | 2 (≈ 1.51 µM) | 4 (≈ 3.03 µM) | 16 (≈ 12.1 µM) | 8 | 2 (≈ 1.51 µM) | 8 (≈ 6.05 µM) | > 32 | 2 | 2 (≈ 1.51 µM) | 2 (≈ 1.51 µM) | > 32 | – | – | – | Vesicle leakage activity on EYPC vesicles ([2]; egg yolk phosphatidyl choline vesicles): very low levels of activity; Vesicle leakage activity on EYPG vesicles ([2]; fluorescein-loaded anionic EYPG vesicles): very strong activities |
| H-KKLLKLLKLLL-NH2 [ln65, reference compound] | 73 | 64 | 73 | 64 | – | 4 | 4 | 2 to 4 | 16 | – | 2 to 4 | 4 | 8 | – | 4 | 2 to 4 | 8 | 4 | 4 | 3 | MIC P. aeruginosa PAO1, full MH at pH 8.5 (P. aeruginosa PAO1; CSV, full MH at pH 8.5): 16 ug/mL; MIC P. aeruginosa PAO1 […] (P. aeruginosa PAO1): 4 µg/mL; MIC P. aeruginosa PAO1 Full (P. aeruginosa PAO1): 2 to 4 µg/mL; MIC K. pneumoniae NCTC418, […] MH at pH 7.4 (K. pneumoniae NCTC418; CSV): 3 ug/mL; MIC K. pneumoniae NCTC418, […] MH at pH 8.5 (K. pneumoniae NCTC418; CSV): 2 ug/mL; MIC K. pneumoniae NCTC418, full MH at pH 7.4 (K. pneumoniae NCTC418; CSV, full MH at pH 7.4): 4 ug/mL; MIC K. pneumoniae NCTC418, full MH at pH 8.5 (K. pneumoniae NCTC418; CSV, full MH at pH 8.5): 8 ug/mL; MIC K. pneumoniae NCTC418 […] 8.5 (K. pneumoniae NCTC418; Table S2, pH 8.5): 2 µg/mL; MIC K. pneumoniae NCTC418 […] (K. pneumoniae NCTC418): 2 to 4 µg/mL; MIC K. pneumoniae NCTC418 Full (K. pneumoniae NCTC418; full MH): 4 µg/mL; MIC A. baumannii ATCC19606, […] MH at pH 7.4 (A. baumannii ATCC19606; CSV): 4 ug/mL; MIC A. baumannii ATCC19606, […] MH at pH 8.5 (A. baumannii ATCC19606; CSV): 2 ug/mL; MIC A. baumannii ATCC19606, full MH at pH 7.4 (A. baumannii ATCC19606; CSV, full MH at pH 7.4): 3 ug/mL; MIC A. baumannii ATCC19606, full MH at pH 8.5 (A. baumannii ATCC19606; CSV, full MH at pH 8.5): 8 ug/mL; MIC A. baumannii ATCC19606 […] 8.5 (A. baumannii ATCC19606; pH 8.5): 2 µg/mL; MIC A. baumannii ATCC19606 […] (A. baumannii ATCC19606): 4 µg/mL; MIC A. baumannii ATCC19606 Full (A. baumannii ATCC19606): 2 to 4 µg/mL |
| CC(C)C[C@H](NC(=O)[C@H](CC(C)C)NC(=O)[C@H](CC(C)C)NC(=O)[C@@H](CCCCN)NC(=O)[C@H](CC(C)C)NC(=O)[C@H](CC(C)C)NC(=O)[C@@H](CCCCN)NC(=O)[C@H](CC(C)C)NC(=O)[C@H](CC(C)C)NC(=O)[C@@H](CCCCN)NC(=O)[C@H](N)CCCCN)C(N)=O [ln69, kkLLkLLkLLL, reference compound] (H-[dK][dK]LL[dK]LL[dK]LLL-NH2) | 61 | 34 | 61 | 34 | – | 4 (≈ 3.03 µM) | 2 (≈ 1.51 µM) | 8 (≈ 6.05 µM) | 8 (≈ 6.05 µM) | – | 4 (≈ 3.03 µM) | 8 (≈ 6.05 µM) | 16 (≈ 12.1 µM) | – | 2 (≈ 1.51 µM) | 2 to 4 | 8 to 16 | 4 | 2 | 8 | MIC P. aeruginosa PAO1, full MH at pH 8.5 (P. aeruginosa PAO1; CSV, full MH at pH 8.5): 8 ug/mL; MIC P. aeruginosa PAO1 […] (P. aeruginosa PAO1): 4 µg/mL (≈ 3.03 µM); MIC P. aeruginosa PAO1 Full (P. aeruginosa PAO1): 8 µg/mL (≈ 6.05 µM); MIC K. pneumoniae NCTC418, […] MH at pH 7.4 (K. pneumoniae NCTC418; CSV): 4 ug/mL; MIC K. pneumoniae NCTC418, […] MH at pH 8.5 (K. pneumoniae NCTC418; CSV): 2 ug/mL; MIC K. pneumoniae NCTC418, full MH at pH 7.4 (K. pneumoniae NCTC418; CSV, full MH at pH 7.4): 8 ug/mL; MIC K. pneumoniae NCTC418, full MH at pH 8.5 (K. pneumoniae NCTC418; CSV, full MH at pH 8.5): 16 ug/mL; MIC K. pneumoniae NCTC418 […] 8.5 (K. pneumoniae NCTC418; Table S2, pH 8.5): 2 µg/mL (≈ 1.51 µM); MIC K. pneumoniae NCTC418 […] (K. pneumoniae NCTC418): 4 µg/mL (≈ 3.03 µM); MIC K. pneumoniae NCTC418 Full (K. pneumoniae NCTC418; full MH): 8 µg/mL (≈ 6.05 µM); MIC A. baumannii ATCC19606, […] MH at pH 7.4 (A. baumannii ATCC19606; CSV): 2 ug/mL; MIC A. baumannii ATCC19606, […] MH at pH 8.5 (A. baumannii ATCC19606; CSV): 2 ug/mL; MIC A. baumannii ATCC19606, full MH at pH 7.4 (A. baumannii ATCC19606; CSV, full MH at pH 7.4): 3 ug/mL; MIC A. baumannii ATCC19606, full MH at pH 8.5 (A. baumannii ATCC19606; CSV, full MH at pH 8.5): 12 ug/mL; MIC A. baumannii ATCC19606 […] 8.5 (A. baumannii ATCC19606; pH 8.5): 2 µg/mL (≈ 1.51 µM); MIC A. baumannii ATCC19606 […] (A. baumannii ATCC19606): 2 µg/mL (≈ 1.51 µM); MIC A. baumannii ATCC19606 Full (A. baumannii ATCC19606): 2 to 4 µg/mL |
| CC(C)C[C@H](NC(=O)[C@H](CC(C)C)NC(=O)[C@H](CC(C)C)NC(=O)[C@H](CCCCN)NC(=O)[C@H](CC(C)C)NC(=O)[C@H](CC(C)C)NC(=O)CN(CCCCN)C(=O)CN(CC(C)C)C(=O)CN(CC(C)C)C(=O)CN(CCCCN)C(=O)CNCCCCN)C(N)=O [EB5, kkllkLLKLLL] (H-[Nlys][Nlys][Nleu][Nleu][Nlys]LLKLLL-NH2) | – | – | – | – | 4 | – | – | – | – | >32 | – | – | – | 2 | – | – | – | – | – | – | MIC P. aeruginosa PAO1, full MH at pH 8.5 (P. aeruginosa PAO1; PAO1, 4 h, pH 8.5): >32 ug/mL; MIC K. pneumoniae NCTC418, full MH at pH 8.5 (K. pneumoniae NCTC418; NCTC418, 4 h, pH 8.5): 24 ug/mL; MIC K. pneumoniae NCTC418 Full MH 8.5 (K. pneumoniae NCTC418; NCTC418, 4 h, pH 8.5): 16 to 32 µg/mL; MIC A. baumannii ATCC19606, full MH at pH 8.5 (A. baumannii ATCC19606; ATCC19606, 4 h, pH 8.5): >32 ug/mL |

Source: article PMC10714400, “Antimicrobial Peptide–Peptoid Hybrids with and without Membrane Disruption” (ACS Infectious Diseases, 2023)
